Where a SMILES comes first, the peptide text is derived from it. Bridges are numbered along the chain shown (N, C = ends). [ ]: non-standard residue; d: D form. hPhe(3-Cl-4-CF3) = N[C@@H](CCc1ccc(C(F)(F)F)c(Cl)c1)C(=O)O; NPrPhe(4-CF3) = CCCN[C@@H](Cc1ccc(C(F)(F)F)cc1)C(=O)O; NMeGly(cPent) = CN[C@H](C(=O)O)C1CCCC1; Pro(4,4-F2) = O=C(O)[C@@H]1CC(F)(F)CN1; NMeD = CN[C@@H](CC(=O)O)C(=O)O; NMeL = CN[C@@H](CC(C)C)C(=O)O; Ac5c = NC1(C(=O)O)CCCC1; Aze = O=C(O)[C@@H]1CCN1; Sar = CNCC(=O)O
Legend:
[1] = test system: human lung cancer strain NCI-H441; assay type: cell-based
Summary of the method: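 Step one: dispense the test compound in serial DMSO dilutions. Step three: add the reagent and measure […].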

[2] = target: GDP-bound NRAS wild-type protein (Homo sapiens, UniProt P01111); test: Binding to NRAS by surface plasmon resonance (SPR), KD and KD ratio to KRAS
Summary of the method: (§1)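 Captured GDP-RAS (~100–300 RU) was exposed to increasing compound concentrations, 75 s per step, in running buffer with 10 µM GDP, 10 mM MgCl2 and 4% DMSO at pH 7.4.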

[3] = target: GDP-bound KRAS wild-type protein (Homo sapiens, UniProt P01116); test: Binding to KRAS by surface plasmon resonance (SPR), dissociation constant KD
Summary of the method: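 SPR, 30°C: Avi-biotin RAS·GDP captured via Biotin CAPture (~100–300 RU); running buffer HBS pH 7.4, 1 mM DTT, 10 mM MgCl2, 0.01% Tween 20, 10 µM GDP, 4% DMSO. Single-cycle kinetics, 100 µL/min, 75 s injections; 1:1 model → KD.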

HRAS wild-type protein = HRAS wild-type protein (Homo sapiens, UniProt P01112); test: Binding to HRAS by surface plasmon resonance (SPR), KD and KD ratio to KRAS
Summary of the method: as §1

[4] = ratio of KD for GDP-bound NRAS wild-type protein to KD for KRAS
[5] = ratio of KD for HRAS wild-type protein to KD for KRAS
[6] = ratio of the KD value with respect to GDP-bound NRAS wild-type protein to the KD value with respect to KRAS
[7] = Single Cycle Kinetics, 1:1 binding model
[8] = ratio of the KD value with respect to HRAS wild-type protein to the KD value with respect to KRAS

GDP-bound NRAS wild-type protein, sequence (P01111 whole entry): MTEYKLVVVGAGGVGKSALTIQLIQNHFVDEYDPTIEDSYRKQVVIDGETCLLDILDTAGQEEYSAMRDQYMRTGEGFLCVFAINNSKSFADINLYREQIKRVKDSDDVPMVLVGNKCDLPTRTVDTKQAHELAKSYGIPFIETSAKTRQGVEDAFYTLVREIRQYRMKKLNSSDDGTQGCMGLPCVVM
HRAS wild-type protein, sequence (P01112 whole entry): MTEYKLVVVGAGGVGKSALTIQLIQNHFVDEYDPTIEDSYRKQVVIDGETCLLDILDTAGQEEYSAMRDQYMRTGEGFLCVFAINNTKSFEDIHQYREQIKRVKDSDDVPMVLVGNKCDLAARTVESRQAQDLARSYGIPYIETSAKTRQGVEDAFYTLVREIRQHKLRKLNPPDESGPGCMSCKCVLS
GDP-bound KRAS wild-type protein, sequence (P01116 1-188 isoform P01116-2): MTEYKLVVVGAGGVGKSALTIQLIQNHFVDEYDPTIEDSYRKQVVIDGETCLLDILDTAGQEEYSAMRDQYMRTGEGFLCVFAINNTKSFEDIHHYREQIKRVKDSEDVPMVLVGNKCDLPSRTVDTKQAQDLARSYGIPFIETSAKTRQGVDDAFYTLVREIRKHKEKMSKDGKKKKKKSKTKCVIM

CC[C@H](C)[C@@H]1NC(=O)[C@H](CC(C)C)N(C)C(=O)C[C@@H](C(=O)N2CCOCC2)N(C)C(=O)[C@H](C2CCCC2)N(C)C(=O)C2(CCC2)NC(=O)[C@@H]2[C@H]3C[C@H]3CN2C(=O)[C@H](CCc2cc(F)c(C(F)(F)F)c(F)c2)NC(=O)CN(C)C(=O)[C@H](Cc2ccc(C(F)(F)F)cc2)N2CCCCC[C@@H](C2=O)N(C)C(=O)CN(C)C1=O [PP0819]
IC50 [1]: 75.7 nM
NRAS /KRAS [2, 4]: A (a compound having 10 or more and less than 20 is denoted as A)
Kd ([3]; Single Cycle Kinetics): 0.56 nM
HRAS /KRAS (HRAS wild-type protein; [5]): B (a compound having 3 or more and less than 10 is denoted as B)

CCCOC[C@H]1C(=O)N[C@@H]([C@@H](C)CC)C(=O)N(C)CC(=O)N(C)[C@H]2C/C=C\CCN(C2=O)[C@@H](Cc2ccc(C)cc2)C(=O)N(C)CC(=O)N[C@@H](CCc2ccc(C(F)(F)F)c(OC)c2)C(=O)N2C[C@H](OCC)C[C@H]2C(=O)N(C)C2(CCC2)C(=O)N(C)[C@@H](C2CCCC2)C(=O)N(C)[C@H](C(=O)N(C)C)CC(=O)N1C [PP2326]
IC50 [1]: 1.6 nM
NRAS /KRAS [2, 6]: A (a compound having 10 or more and less than 20 is denoted as A)
Kd [3, 7]: 0.031 nM
HRAS /KRAS (HRAS wild-type protein; [8]): B (a compound having 3 or more and less than 10 is denoted as B)

CCC[C@H]1C(=O)N[C@@H]([C@@H](C)CC)C(=O)N(C2CC2)CC(=O)N(C)[C@H]2C/C=C\CCN(C2=O)[C@@H](CC2CCCCC2)C(=O)N(C)CC(=O)N[C@@H](CCc2ccc(C(F)(F)F)c(OC)c2)C(=O)N2C[C@H](OCC)C[C@H]2C(=O)N(C)C2(CCC2)C(=O)N(C)[C@@H](C(CC)CC)C(=O)N(C)[C@H](C(=O)N(C)C)CC(=O)N1C [PP2337]
IC50 [1]: 33.9 nM
NRAS /KRAS [2, 6]: A (a compound having 10 or more and less than 20 is denoted as A)
Kd [3, 7]: 32 nM
HRAS /KRAS (HRAS wild-type protein; [8]): A (a compound having 10 or more and less than 20 is denoted as A)

CCC[C@H]1C(=O)N[C@@H]([C@@H](C)CC)C(=O)N(C)CC(=O)N(C)[C@H]2C/C=C\CCN(C2=O)[C@@H](Cc2ccc(C)cc2)C(=O)N(C)CC(=O)N[C@@H](CCc2ccc(C(F)(F)F)c(OC)c2)C(=O)N2C[C@@H](C)C[C@H]2C(=O)NC2(CCC2)C(=O)N(C)[C@@H](C2CCCC2)C(=O)N(C)[C@H](C(=O)N(C)CC)CC(=O)N1C [PP1840]
IC50 [1]: 26.8 nM
NRAS /KRAS ([2]; ratio of KD value for GDP-bound NRAS wild-type protein to KD value for KRAS (SPR)): A (a compound having 10 or more and less than 20 is denoted as A)
Kd [3, 7]: 0.12 nM
HRAS /KRAS (HRAS wild-type protein; ratio of KD value for HRAS wild-type protein to KD value for KRAS (SPR)): B (a compound having 3 or more and less than 10 is denoted as B)

CCC[C@H]1C(=O)N[C@@H](C2CCCC2)C(=O)N(C)CC(=O)N(C)[C@H]2C/C=C\CCN(C2=O)[C@@H](Cc2ccc(C)cc2)C(=O)N(C)CC(=O)N[C@@H](CCc2ccc(C(F)(F)F)c(OC)c2)C(=O)N2CC3(CC3)C[C@H]2C(=O)NC2(CC(C)(C)C2)C(=O)N(C)[C@@H](C2CCCC2)C(=O)N(C)[C@H](C(=O)N(C)C)CC(=O)N1C [PP2994]
IC50 [1]: 15.8 nM
NRAS /KRAS [2, 4]: AA (a compound having 20 or more is denoted as AA)
Kd ([3]; 1:1 binding model): 0.21 nM
HRAS /KRAS (HRAS wild-type protein; [5]): A (a compound having 10 or more and less than 20 is denoted as A)

CCO[C@@H]1C[C@H]2C(=O)NC3(CC(C)(C)C3)C(=O)N(C)[C@@H](C3CCCC3)C(=O)N(C)[C@H](C(=O)N(C)C)CC(=O)N(C)[C@@H]([C@H](C)OC)C(=O)N[C@@H]([C@@H](C)CC)C(=O)N(C3CC3)CC(=O)N(C)[C@H]3C/C=C\CCN(C3=O)[C@@H](Cc3ccc(C)cc3)C(=O)N(C)CC(=O)N[C@@H](CCc3ccc(C(F)(F)F)c(Cl)c3)C(=O)N2C1 [PP3195]
IC50 [1]: 22.2 nM
NRAS /KRAS [2, 4]: A (a compound having 10 or more and less than 20 is denoted as A)
Kd ([3]; 1:1 binding model): 0.41 nM
HRAS /KRAS (HRAS wild-type protein; [5]): A (a compound having 10 or more and less than 20 is denoted as A)

CCO[C@@H]1C[C@H]2C(=O)NC3(CCC3)C(=O)N(C)[C@@H](C3CCCC3)C(=O)N(C)[C@H](C(=O)N3CCOCC3)CC(=O)N(C)[C@@H](Cc3cccnc3)C(=O)N[C@@H]([C@@H](C)CC)C(=O)N(C)CC(=O)N(C)[C@H]3CCCCN(C3=O)[C@@H](Cc3ccc(C(F)(F)F)cc3)C(=O)N(C)CC(=O)N[C@@H](CCc3cc(F)c(C(F)(F)F)c(F)c3)C(=O)N2C1 [PP0718]
IC50 [1]: 42.3 nM
NRAS /KRAS [2, 6]: C (A compound having a KD ratio of 0.1 or more and less than 3 is denoted as C)
Kd [3, 7]: 0.029 nM
HRAS /KRAS (HRAS wild-type protein; [8]): B (a compound having 3 or more and less than 10 is denoted as B)

CCO[C@@H]1C[C@H]2C(=O)NC3(CC(C)(C)C3)C(=O)N(C)[C@@H](C3CCCC3)C(=O)N(C)[C@H](C(=O)N(C)CC)CC(=O)N(C)[C@@H](CC(C)C)C(=O)N[C@@H]([C@@H](C)CC)C(=O)N(C)CC(=O)N(C)[C@H]3C/C=C\CCN(C3=O)[C@@H](Cc3ccc(C(F)F)cc3)C(=O)N(C)CC(=O)N[C@@H](CCc3ccc(C(F)(F)F)c(CC)c3)C(=O)N2C1 [PP3141]
IC50 [1]: 9.8 nM
NRAS /KRAS [2, 4]: A (a compound having 10 or more and less than 20 is denoted as A)
Kd ([3]; 1:1 binding model): 0.25 nM
HRAS /KRAS (HRAS wild-type protein; [5]): A (a compound having 10 or more and less than 20 is denoted as A)

CCC[C@@H]1C[C@H]2C(=O)NC3(CCCC3)C(=O)N(C)[C@@H](C3CCCC3)C(=O)N(C)[C@H](C(=O)N(C)C)CC(=O)N(C)[C@@H](CC)C(=O)N[C@@H]([C@@H](C)CC)C(=O)N(C)CC(=O)N(C)[C@H]3C/C=C\CCN(C3=O)[C@@H](Cc3ccc(C)cc3)C(=O)N(C)CC(=O)N[C@@H](CCc3cc(F)c(C(F)(F)F)c(F)c3)C(=O)N2C1 [PP2227]
IC50 [1]: 50.3 nM
NRAS /KRAS [2, 6]: A (a compound having 10 or more and less than 20 is denoted as A)
Kd [3, 7]: 0.27 nM
HRAS /KRAS (HRAS wild-type protein; [8]): A (a compound having 10 or more and less than 20 is denoted as A)

CCCN1C(=O)CN(C)C(=O)[C@@H]2CCN2C(=O)[C@H]([C@@H](C)CC)NC(=O)[C@H](CC(C)C)N(C)C(=O)C[C@@H](C(=O)N(C)C)N(C)C(=O)[C@H](C2CCCC2)N(C)C(=O)C2(CCCC2)NC(=O)[C@@H]2CC(F)(F)CN2C(=O)[C@H](CCc2ccc(C(F)(F)F)c(Cl)c2)NC(=O)CN(C)C(=O)[C@@H]1Cc1ccc(C(F)(F)F)cc1 [PP0431] ([NMeL]I[Aze][Sar][NPrPhe(4-CF3)][Sar][hPhe(3-Cl-4-CF3)][Pro(4,4-F2)][Ac5c][NMeGly(cPent)][NMeD]-NMe2; lactam N-11)
IC50 [1]: 9.9 nM
NRAS /KRAS [2, 6]: B (a compound having 3 or more and less than 10 is denoted as B)
Kd [3, 7]: 0.35 nM
HRAS /KRAS (HRAS wild-type protein; [8]): C (A compound having a KD ratio of 0.1 or more and less than 3 is denoted as C)

CCCN1C(=O)CN(C)C(=O)[C@@H]2CCN2C(=O)[C@H]([C@@H](C)CC)NC(=O)[C@H](CC(C)C)N(C)C(=O)C[C@@H](C(=O)N(C)C)N(C)C(=O)[C@H](C2CCCC2)N(C)C(=O)C2(CCCC2)NC(=O)[C@@H]2CCCN2C(=O)[C@H](CCc2ccc(C(F)(F)F)c(Cl)c2)NC(=O)CN(C)C(=O)[C@@H]1Cc1ccc(C(F)(F)F)cc1 [PP0429] ([NMeL]I[Aze][Sar][NPrPhe(4-CF3)][Sar][hPhe(3-Cl-4-CF3)]P[Ac5c][NMeGly(cPent)][NMeD]-NMe2; lactam N-11)
IC50 [1]: 12.4 nM
NRAS /KRAS [2, 6]: B (a compound having 3 or more and less than 10 is denoted as B)
Kd [3, 7]: 0.39 nM
HRAS /KRAS (HRAS wild-type protein; [8]): C (A compound having a KD ratio of 0.1 or more and less than 3 is denoted as C)
